US20240099302A1, “Use of a Biobased Composition Comprising Ferulated Chitosan for Regulating and Stimulating Plant Growth” (FYTEKO SA, priority 2020, published 2024)

System: new guinea impatient plants cultivar Sony pink
Experiment: Effect of foliar spraying on flowering of new guinea impatient plants
Assay type: in vivo
Conditions: foliar spraying once a week for 8 weeks, evaluated 22 weeks after sowing
Description: Different treatments were applied by foliar spraying on one-month old new guinea impatient plants cultivar Sony pink once a week for 8 weeks. The effect of foliage of application on the inflorescence was evaluated at the end of the flowering step (22 weeks after sowing) and the results are shown in Table 12.

Compound	Average diameter of the flowers	Total number of flowers per plant
Diferulic acid	6.52 cm	74.2
COc1cc(/C=C/C(=O)O)ccc1O [Ferulic acid]	6.40 cm	60.0
